Results taken from patent publication US10106516B2, “PDE10 inhibitors and related compositions and methods” (Omeros Corporation, priority 2010, dated 2018).

target: T1, PDE10 (Homo sapiens, UniProt Q9Y233); test: PDE10 biochemical assay (two-step Thompson and Appleman method or SPA); conditions: PDE10 inhibition
T1 construct: made in house; host or cells: Sf9 insect cells (baculovirus)
Description: In short, cAMP is spiked with (^3H)cAMP and incubated with PDE10 and various concentrations of a compound of structure (I). After the appropriate incubation time, the reaction is terminated by heating. The mixture is then subjected to treatment with snake venom phosphatase. The phosphatase hydrolyzes any AMP in the mixture, but leaves unreacted cAMP intact. Thus, by separating cAMP from the mixture and determining its concentration (by radiography), the percent of inhibition can be determined. IC50 values can be calculated by performing the experiment at several concentrations using standard graphical means. A detailed description of the actual technique used for IC50 assays as set forth in following Examples.
The phosphodiesterase (PDE) assay was performed using recombinant human PDE 1A3, 2A3, 3 catalytic region, 4 catalytic region, 5 catalytic region, 7A, 8A, 9A2, 10A1 and 11A1 enzymes expressed in a baculoviral system using Sf9 cells. PDE activity was measured using a modification of the two-step method of Thompson and Appleman described above which was adapted for 96 well plate format. […] The final assay volume was 110 μl with assay buffer (10 mM MgCl2; 40 mM Tris.HCl; pH 7.4). Reactions were initiated with enzyme and incubated with (^3H)-substrate and substance for 20 minutes at 30° C. The reaction was terminated by denaturing the enzyme (heating the reaction to 70° C. for 2 minutes). The reaction was then cooled at 4° C. for 10 minutes before the addition of snake venom (Crotalus atrox, 0.2 mg/ml) for 10 minutes at 30° C., thus allowing non-specific hydrolysis of the tritiated substrate. Separation of the remaining unhydrolysed cyclic nucleotide was achieved by a batch binding of the mixture to activated Dowex (200 μl) anion exchange resin. The anion exchange resin bound the charged nucleotides, leaving only hydrolysed (^3H) substrate in the soluble fraction. The soluble fraction (50 μl) was then added to microscint-20 (200 μl) and counted on a Top Count Plate reader. Radioactivity units were plotted against inhibitor concentration and IC50 values obtained using Graph Pad Prism software.
Alternatively, phosphodiesterase activity was measured by scintillation proximity assay (SPA) with [^3H]-cGMP as substrate. Purified PDE10 was diluted and stored in 25 mM Tris-Cl (pH 8.0)/100 mM NaCl/0.05% Tween 20/50% glycerol/3 mM DTT. Assays contained (final concentrations): 50 mM Tris-Cl (pH 7.5)/8.3 mM MgCl2/1.7 mM EGTA/0.5 mg/ml BSA/5% DMSO and 2 ng PDE10 in a final volume of 0.1 mL. Inhibition was evaluated at 8 concentrations in duplicate. Reactions were initiated by addition of enzyme and were terminated after 20 minutes at 30° C. by the addition of 50 μl of SPA beads containing Zn^++. The mixture was shaken, allowed to settle for 3 hours, and counted in a Wallac plate counter. Results (net cpm) were fitted to a four parameter logistic model using Excel Solver®.

T1 sequence (Q9Y233 1-779 isoform Q9Y233-1): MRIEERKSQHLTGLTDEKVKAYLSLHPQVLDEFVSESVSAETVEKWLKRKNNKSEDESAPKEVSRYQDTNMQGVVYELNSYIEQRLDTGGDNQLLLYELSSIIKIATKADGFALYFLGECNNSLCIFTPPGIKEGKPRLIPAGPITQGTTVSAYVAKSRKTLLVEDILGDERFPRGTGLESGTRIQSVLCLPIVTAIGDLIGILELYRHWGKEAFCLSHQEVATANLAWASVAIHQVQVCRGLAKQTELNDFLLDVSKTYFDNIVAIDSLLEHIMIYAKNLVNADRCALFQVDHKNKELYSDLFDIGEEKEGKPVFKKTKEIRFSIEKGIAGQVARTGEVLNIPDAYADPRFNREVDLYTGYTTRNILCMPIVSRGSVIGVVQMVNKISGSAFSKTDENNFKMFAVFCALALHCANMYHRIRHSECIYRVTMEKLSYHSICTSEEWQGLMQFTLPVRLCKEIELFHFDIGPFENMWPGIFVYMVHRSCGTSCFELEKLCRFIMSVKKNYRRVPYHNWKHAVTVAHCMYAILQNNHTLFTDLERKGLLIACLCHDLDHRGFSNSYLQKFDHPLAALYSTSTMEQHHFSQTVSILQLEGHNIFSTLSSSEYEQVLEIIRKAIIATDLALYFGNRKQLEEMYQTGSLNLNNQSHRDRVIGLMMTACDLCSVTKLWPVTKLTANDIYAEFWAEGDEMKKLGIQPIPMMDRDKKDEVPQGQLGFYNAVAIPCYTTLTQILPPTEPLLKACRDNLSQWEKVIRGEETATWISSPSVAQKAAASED

Structure (SMILES) | IC50 [nM]
CCc1nnc(-c2ccc(C(OC)C(=O)c3ccc(-c4cc(OC)c(Br)c(OC)c4)o3)cc2)o1 (centres unmarked) [Compound 18-1, 1-(5-(4-Bromo-3,5-Dimethoxyphenyl)Furan-2-Yl)-2-(4-(5-Ethyl-1,3,4-Oxadiazol-2-Yl)Phenyl)-2-Methoxyethanone] | ≤ 1000
COc1cc(-c2ccc(C(=O)C(OC)c3ccc(-n4cccn4)cc3)o2)cc(OC)c1OC (centres unmarked) [Compound 65-9] | ≤ 1000
COc1cc(-c2ccc(C(=O)C(OC)c3ccc(-c4nnc(C)o4)cc3)o2)cc(Br)c1OC (centres unmarked) [Compound 39-1, 1-(5-(3-Bromo-4,5-Dimethoxyphenyl)Furan-2-Yl)-2-Methoxy-2-(4-(5-Methyl-1,3,4-Oxadiazol-2-Yl)Phenyl)Ethanone] | ≤ 1000
COc1cc(-c2ccc(C(=O)C(OC)c3ccc(-n4nccn4)cc3)o2)cc(OC)c1Br (centres unmarked) [Compound 30-1, 2-(4-(2H-1,2,3-Triazol-2-Yl)Phenyl)-1-(5-(4-Bromo-3,5-Dimethoxyphenyl)Furan-2-Yl)-2-Methoxyethanone] | ≤ 1000
CCOC(C(=O)c1ccc(-c2cc(OC)c(Cl)c(OC)c2)o1)c1ccc(N2CCOCC2)cc1 (centres unmarked) [Compound 64-1, 1-(5-(4-Chloro-3,5-Dimethoxyphenyl)Furan-2-Yl)-2-Ethoxy-2-(4-Morpholinophenyl)Ethanone] | ≤ 1000
COc1cc(-c2ccc(C(=O)C(OC)c3ccc(-c4csc(C)n4)cc3)o2)cc(OC)c1Br (centres unmarked) [Compound 35-1, 1-(5-(4-Bromo-3,5-Dimethoxyphenyl)Furan-2-Yl)-2-Methoxy-2-(4-(2-Methylthiazol-4-Yl)Phenyl)Ethanone] | ≤ 1000
COc1cc(-c2ccc(C(=O)C(OC)c3ccc(N4CCOCC4)cc3)o2)cc(OC)c1F (centres unmarked) [Compound 48-1, 1-(5-(4-Fluoro-3,5-Dimethoxyphenyl)Furan-2-Yl)-2-Methoxy-2-(4-Morpholinophenyl)Ethanone] | ≤ 1000
COc1cc(-c2coc(C(=O)C(OC)c3ccc(-n4nccn4)cc3)n2)cc(OC)c1Br (centres unmarked) [Compound 65-5] | ≤ 1000
CCOc1c(OC)cc(-c2ccc(C(=O)C(OC)c3ccc(N4CCOCC4)cc3)o2)cc1OC (centres unmarked) [Compound 29-1, 1-(5-(4-Ethoxy-3,5-Dimethoxyphenyl)Furan-2-Yl)-2-Methoxy-2-(4-Morpholinophenyl)Ethanone] | ≤ 1000
COc1cc(-c2coc(C(=O)C(OC)c3cccc4ncccc34)n2)cc(OC)c1Br (centres unmarked) [Compound 9-1, 1-(4-(4-Bromo-3,5-Dimethoxyphenyl)Oxazol-2-Yl)-2-Methoxy-2-(Quinolin-5-Yl)Ethanone] | ≤ 1000
COc1cc(-c2ccc(C(=O)C(OC)c3ccc(-c4nnc(C)s4)cc3)o2)cc(OC)c1OC (centres unmarked) [Compound 65-8] | ≤ 1000
CCOC(C(=O)c1ccc(-c2cc(OC)c(Br)c(OC)c2)o1)c1ccc(N2CCOCC2)cc1 (centres unmarked) [Compound 38-1, 1-(5-(4-Bromo-3,5-Dimethoxyphenyl)Furan-2-Yl)-2-Ethoxy-2-(4-Morpholinophenyl)Ethanone] | ≤ 1000
COc1cc(-c2cnc(C(=O)C(OC)c3ccc(N4CCOCC4)cc3)o2)cc(OC)c1Br (centres unmarked) [Compound 56-1, 1-(5-(4-Bromo-3,5-Dimethoxyphenyl)Oxazol-2-Yl)-2-Methoxy-2-(4-Morpholinophenyl)Ethanone] | ≤ 1000
COc1cc(-c2ccc(C(=O)C(OC)c3ccc(N4CCOCC4)cc3)s2)cc(OC)c1Br (centres unmarked) [Compound 59-1, 1-(5-(4-Bromo-3,5-Dimethoxyphenyl)Thiophen-2-Yl)-2-Methoxy-2-(4-Morpholinophenyl)Ethanone] | ≤ 1000
COc1ccc(C(OC)C(=O)c2ccc(-c3cc(OC)c(Br)c(OC)c3)o2)cn1 (centres unmarked) [Compound 42-1, 1-(5-(4-Bromo-3,5-Dimethoxyphenyl)Furan-2-Yl)-2-Methoxy-2-(6-Methoxypyridin-3-Yl)Ethanone] | ≤ 1000
COc1cc(-c2ccc(C(=O)C(OC)c3ccc(-c4nnc(C)o4)cc3)o2)cc(OC)c1C#N (centres unmarked) [Compound 65-12] | ≤ 1000

Structure (SMILES) | IC50 [nM]
COc1cc(-c2ccc(C(=O)C(OC)c3ccc(N4CCOCC4)cc3)o2)cc(OC)c1OC (centres unmarked) [Compound 65-7] | ≤ 1000
COc1cc(-c2ccc(C(=O)C(OC)c3ccc(-n4cccn4)cc3)o2)cc(OC)c1Br (centres unmarked) [Compound 14-1, 2-(4-(1H-Pyrazol-1-Yl)Phenyl)-1-(5-(4-Bromo-3,5-Dimethoxyphenyl)Furan-2-Yl)-2-Methoxyethanone] | ≤ 1000
CCOC(C(=O)c1ccc(-c2cc(OC)c(OC)c(OC)c2)o1)c1ccc(-c2nnc(C)o2)cc1 (centres unmarked) [Compound 46-1, 2-Ethoxy-2-(4-(5-Methyl-1,3,4-Oxadiazol-2-Yl)Phenyl)-1-(5-(3,4,5-Trimethoxyphenyl)Furan-2-Yl)Ethanone] | ≤ 1000
COc1cc(-c2ccc(C(=O)C(OC)c3ccc(-c4nnc(C5CC5)o4)cc3)o2)cc(OC)c1Br (centres unmarked) [Compound 22-1, 1-(5-(4-Bromo-3,5-Dimethoxyphenyl)Furan-2-Yl)-2-(4-(5-Cyclopropyl-1,3,4-Oxadiazol-2-Yl)Phenyl)-2-Methoxyethanone] | ≤ 1000
COc1cc(-c2ccc(C(=O)C(OC)c3ccc(-c4nnc(C)o4)cc3)o2)cc(Cl)c1OC (centres unmarked) [Compound 40-1, 1-(5-(3-Chloro-4,5-Dimethoxyphenyl)Furan-2-Yl)-2-Methoxy-2-(4-(5-Methyl-1,3,4-Oxadiazol-2-Yl)Phenyl)Ethanone] | ≤ 1000
COc1cc(-c2ccc(C(=O)C(OC)c3ccc(-c4nnc(C5CC5)o4)cc3)o2)cc(OC)c1OC (centres unmarked) [Compound 60-1, 2-(4-(5-Cyclopropyl-1,3,4-Oxadiazol-2-Yl)Phenyl)-2-Methoxy-1-(5-(3,4,5-Trimethoxyphenyl)Furan-2-Yl)Ethanone] | ≤ 1000
COc1cc(-c2csc(C(=O)C(OC)c3ccc(-n4cccn4)cc3)n2)cc(OC)c1Br (centres unmarked) [Compound 3-1, 2-(4-(1H-Pyrazol-1-Yl)Phenyl)-1-(4-(4-Bromo-3,5-Dimethoxyphenyl)Thiazol-2-Yl)-2-Methoxyethanone] | ≤ 1000
COc1cc(OC)cc(-c2ccc(C(=O)C(OC)c3ccc(N4CCOCC4)cc3)o2)c1 (centres unmarked) [Compound 27-1, 1-(5-(3,5-Dimethoxyphenyl)Furan-2-Yl)-2-Methoxy-2-(4-Morpholinophenyl)Ethanone] | ≤ 1000
COc1cc(-c2ccc(C(=O)C(OC)c3ccc(N4CCOCC4)nc3)o2)cc(OC)c1Br (centres unmarked) [Compound 44-1, 1-(5-(4-Bromo-3,5-Dimethoxyphenyl)Furan-2-Yl)-2-Methoxy-2-(6-Morpholinopyridin-3-Yl)Ethanone] | ≤ 1000
COc1cc(-c2nc(C(=O)C(OC)c3ccc(N4CCOCC4)cc3)oc2C)cc(OC)c1Br (centres unmarked) [Compound 55-1, 1-(4-(4-Bromo-3,5-Dimethoxyphenyl)-5-Methyloxazol-2-Yl)-2-Methoxy-2-(4-Morpholinophenyl)Ethanone] | ≤ 1000
COc1cc(-c2ccc(C(=O)C(OC)c3ccc(N4CCCCC4)nc3)o2)cc(OC)c1Br (centres unmarked) [Compound 23-1, 1-(5-(4-Bromo-3,5-Dimethoxyphenyl)Furan-2-Yl)-2-Methoxy-2-(6-(Piperidin-1-Yl)Pyridin-3-Yl)Ethanone] | ≤ 1000
COc1cc(-c2ccc(C(=O)C(OC)c3ccc(-c4cn[nH]c4)cc3)o2)cc(OC)c1Br (centres unmarked) [Compound 15-1, 2-(4-(1H-Pyrazol-4-Yl)Phenyl)-1-(5-(4-Bromo-3,5-Dimethoxyphenyl)Furan-2-Yl)-2-Methoxyethanone] | ≤ 1000
COc1ccc(-c2ccn(C(=O)C(OC)c3ccc(N4CCOCC4)cc3)n2)cc1OC (centres unmarked) [Compound 53-1, 1-(3-(3,4-Dimethoxyphenyl)-1H-Pyrazol-1-Yl)-2-Methoxy-2-(4-Morpholinophenyl)Ethanone] | ≤ 1000
COc1cc(-c2ccc(C(=O)C(OC)c3ccc(-c4nnc(C)o4)cc3)o2)cc(OC)c1Br (centres unmarked) [Compound 13-1, 1-(5-(4-Bromo-3,5-Dimethoxyphenyl)Furan-2-Yl)-2-Methoxy-2-(4-(5-Methyl-1,3,4-Oxadiazol-2-Yl)Phenyl)Ethanone] | ≤ 1000
COc1cc(-c2ccc(C(=O)C(OC)c3ccc(-c4nnn(C)n4)cc3)o2)cc(OC)c1Br (centres unmarked) [Compound 33-1, 1-(5-(4-Bromo-3,5-Dimethoxyphenyl)Furan-2-Yl)-2-Methoxy-2-(4-(2-Methyl-2H-Tetrazol-5-Yl)Phenyl)Ethanone] | ≤ 1000
COc1cc(-c2ccn(C(=O)C(OC)c3ccc(N4CCOCC4)cc3)n2)cc(OC)c1Br (centres unmarked) [Compound 52-1, 1-(3-(4-Bromo-3,5-Dimethoxyphenyl)-1H-Pyrazol-1-Yl)-2-Methoxy-2-(4-Morpholinophenyl)Ethanone] | ≤ 1000
